Reference: the OPERA property sets (Mansouri et al. 2018)

**Q.** With `COc1ccc(-c2cc(=O)c3c(O)cc(O)cc3o2)cc1O` as the molecule, how does the logP read?
**A.** 3.1

**Q.** Which logP does the source give for `O=C1c2c(O)cc(O)cc2O[C@H](c2ccc(O)c(O)c2)[C@H]1O` here?
**A.** 0.95

**Q.** Which logP does the source give for `O=c1cc(-c2ccc(O)cc2)oc2cc(O)cc(O)c12` here?
**A.** 3.02

**Q.** With `O=c1cc(-c2ccc(O)c(O)c2)oc2cc(O)cc(O)c12` as the molecule, how does the logP read?
**A.** 2.53

**Q.** With `Oc1cc(O)c2c(c1)O[C@H](c1ccc(O)c(O)c1)[C@@H](O)C2` as the molecule, how does the logP read?
**A.** 0.51

**Q.** For `O=c1cc(-c2ccccc2)oc2cc(O)cc(O)c12`, which logP is on record?
**A.** 3.52

**Q.** For `O=C1C[C@@H](c2ccc(O)c(O)c2)Oc2cc(O)ccc21`, which logP is on record?
**A.** 1.94

**Q.** For `O=C1C[C@@H](c2ccc(O)cc2)Oc2cc(O)cc(O)c21`, which logP is on record?
**A.** 2.52

**Q.** Which logP does the source give for `O=C1CC(c2cccc(O)c2)Oc2cc(O)cc(O)c21` (configuration not stated) here?
**A.** 2.61

**Q.** Which logP does the source give for `COc1ccc(-c2cc(=O)c3c(O)cc(O[C@@H]4O[C@H](CO[C@@H]5O[C@@H](C)[C@H](O)[C@@H](O)[C@H]5O)[C@@H](O)[C@H](O)[C@H]4O)cc3o2)cc1O` here?
**A.** 0.14

**Q.** With `O=C1CC(c2ccc(O)c(O)c2)Oc2cc(O)cc(O)c21` (configuration not stated) as the molecule, how does the logP read?
**A.** 2.02

**Q.** Which logP does the source give for `COc1ccc([C@@H]2CC(=O)c3c(O)cc(O)cc3O2)cc1O` here?
**A.** 2.6

**Q.** For `O=C1CC(c2ccc(O)c(O)c2)Oc2cccc(O)c21` (configuration not stated), which logP is on record?
**A.** 2.81

**Q.** With `O=c1cc(-c2ccc(O)c(O)c2)oc2cccc(O)c12` as the molecule, how does the logP read?
**A.** 3.31

**Q.** With `C[C@@H]1O[C@@H](O[C@H]2[C@H](Oc3cc(O)c4c(c3)O[C@H](c3ccc(O)cc3)CC4=O)O[C@H](CO)[C@@H](O)[C@@H]2O)[C@H](O)[C@H](O)[C@H]1O` as the molecule, how does the logP read?
**A.** -0.44

**Q.** Which logP does the source give for `O=c1cc(-c2ccccc2)oc2cccc(O)c12` here?
**A.** 4.3

**Q.** For `O=C1c2ccc(O)cc2OC(c2ccc(O)c(O)c2)C1O` (configuration not stated), which logP is on record?
**A.** 0.87
